From patent publication US4103011A, “Novel penicillin compounds and process for preparation thereof” (priority 1976, dated 1978)
Values after ≈ are worked out from the molar mass of the structure shown. Counter-ions that a name gives are not always drawn. Like-named read-outs stand apart in the source and are kept apart here.

Experiments:
[1] = test system: bacteria (systemic infection); test: In vivo efficacy against systemic infection, overall conclusions; parameters: species or system male mice (ddY); settings: Table II
Method: (§1) The contents in the vials (No. A and No. C) prepared in Example 17 were each dissolved in deionized water, and injections having various concentrations were prepared.
(§2) Compounds A, B, F, G, H and M were dissolved in deionized water. Compounds C, D, E and J were dissolved in an aqueous solution of sodium carbonate (pH 8-9) to prepare injections of various concentrations.
(§3) Each of the injections was administered to mice under the conditions described below, and the median effective doses (ED50) obtained are shown in Table II.

in vivo = settings: mouse
[2] = test system: Pseudomonas aeruginosa No. 12; test: In vivo efficacy against systemic infection; parameters: species or system male mice (ddY); settings: NO.12, in Mus musculus, twice, about 5 minutes and 6 hours after infection, read-out: ED50 (median effective dose)
Method: as §1
(§4) Compounds A, B, F, G, H and M were dissolved in deionized water.
(§5) Mice: male mice (ddY) weighting about 20g
Pseudomonas aeruginosa No. 12;
(§6) Intraperitoneal infection with 50 to
(§7) of a bacterial suspension in tryptosoy
(§8) twice, about 5 minutes and 6 hours after
Pseudomonas aeruginosa No. 12
(§9) calculated in accordance with the Behrens-Kaerber method [Arch. Exp. Path

[3] = test system: Staphylococcus aureus No. 50774; test: In vivo efficacy against systemic infection; parameters: species or system male mice (ddY); settings: NO.50774, in Mus musculus, 336 h, sc, twice, about 5 minutes and 6 hours after infection, read-out: ED50 (median effective dose)
Method: as §1, §2, §3, §5
Staphylococcus aureus No. 50774;
Intravenous infection with 50 to 100
LD50 (about 5 × 10^8cells/mouse) of a
bacterial suspension in saline.
as §8
Staphylococcus aureus No. 50774 14 days
The numerals in the table show ED50 (mg/kg). ED50 values were
as §9

[4] = test system: Klebsiella pneumoniae No. 13; test: In vitro antibacterial activity (MIC); format: cell-based; settings: Klebsiella pneumoniae No. 13; read-out: minimum inhibitory concentration (MIC)
Text: (§10) In vitro antibacterial activity against 20 strains of bacteria
(§11) The numerals in the table show minimum inhibitory concentrations (MIC)

[5] = test system: Salmonella enteritidis No. 1891; test: In vitro antibacterial activity (MIC); format: cell-based; settings: Salmonella enterica, read-out: minimum inhibitory concentration (MIC)
Text: as §10, §11

[6] = test system: Pseudomonas aeruginosa No.12; test: In vitro antibacterial activity (MIC); format: cell-based
Text: as §10, §11

[7] = test system: Pseudomonas aeruginosa Tsuchijima; test: In vitro antibacterial activity (MIC); format: cell-based; settings: Pseudomonas aeruginosa Tsuchijima; read-out: minimum inhibitory concentration (MIC)
Text: as §10, §11

[8] = test system: Serratia mercescens IFO 3736; test: In vitro antibacterial activity (MIC); format: cell-based
Text: as §10, §11

[9] = test system: Enterobacter cloacae P-2540; test: In vitro antibacterial activity (MIC); format: cell-based
Text: as §10, §11

[10] = test system: Streptococcus pyogenes 65A; test: In vitro antibacterial activity (MIC); format: cell-based; settings: Streptococcus pyogenes 65A; read-out: minimum inhibitory concentration (MIC)
Text: as §10, §11

[11] = test system: Salmonella typhimurium S-9; test: In vitro antibacterial activity (MIC); format: cell-based; settings: Salmonella enterica, read-out: minimum inhibitory concentration (MIC)
Text: as §10, §11

Proteus mirabilis P-2381 = test: In vitro antibacterial activity (MIC); format: cell-based; settings: Proteus mirabilis, P2381, read-out: minimum inhibitory concentration (MIC)
Text: as §10, §11

[12] = test system: Escherichia coli NIHJ JC-2; test: In vitro antibacterial activity (MIC); format: cell-based
Text: as §10, §11

[13] = test system: Staphylococcus aureus No. 50774; test: In vitro antibacterial activity (MIC); format: cell-based
Text: as §10, §11

[14] = test system: Shigella flexneri 4a P-330; test: In vitro antibacterial activity (MIC); format: cell-based; settings: 4AP330, read-out: minimum inhibitory concentration (MIC)
Text: as §10, §11

[15] = test system: Streptococcus faecalis P-2473; test: In vitro antibacterial activity (MIC); format: cell-based; settings: Enterococcus faecalis
Text: as §10, §11

[16] = test system: Corynebacterium pyogenes C-21; test: In vitro antibacterial activity (MIC); format: cell-based; settings: Rhodococcus (subgen. Prescottella) equi, C21; Corynebacterium pyogenes C-21; read-out: minimum inhibitory concentration (MIC)
Text: as §10, §11

Proteus morganii Kono = test: In vitro antibacterial activity (MIC); format: cell-based; settings: Morganella morganii, read-out: minimum inhibitory concentration (MIC)
Text: as §10, §11

Shigella flexneri 2a = test: In vitro antibacterial activity (MIC); format: cell-based; settings: read-out: minimum inhibitory concentration (MIC)
Text: as §10, §11

Escherichia coli P-140a = test: In vitro antibacterial activity (MIC); format: cell-based
Text: as §10, §11

Escherichia coli P-5101 [17] = test: In vitro antibacterial activity (MIC); format: cell-based; settings: Escherichia coli, P5101, read-out: minimum inhibitory concentration (MIC)
Text: as §10, §11

[18] = test system: Staphylococcus aureus 209P JC-1; test: In vitro antibacterial activity (MIC); format: cell-based; settings: Staphylococcus aureus 209P JC-1; read-out: minimum inhibitory concentration (MIC)
Text: as §10, §11

Proteus rettgeri P-2503 = test: In vitro antibacterial activity (MIC); format: cell-based; settings: Providencia rettgeri, P2503; Proteus rettgeri P-2503; read-out: minimum inhibitory concentration (MIC)
Text: as §10, §11

Escherichia coli P-5101 [19] = test: In vivo efficacy against systemic infection; parameters: species or system male mice (ddY); settings: P5101, in Mus musculus, 168 h, twice, about 5 minutes and 6 hours after infection, read-out: ED50 (median effective dose)
Method: as §1, §4, §5, §6, §7, §8, §9

20 strains of bacteria = test: In vitro antibacterial activity, overall conclusions; format: cell-based; settings: against Gram-positive bacteria
Text: as §10

Row | Compound | ED50 ([2]; iv) [mg/kg] | ED50 ([2]; sc) [mg/kg] | ED50 [3] [mg/kg] | MIC [4] [µg/mL] | MIC [7] [µg/mL] | MIC [10] [µg/mL] | MIC (Proteus mirabilis P-2381) [µg/mL] | MIC [14] [µg/mL] | MIC [16] [µg/mL] | MIC (Shigella flexneri 2a) [µg/mL] | MIC (Escherichia coli P-5101 [17]) [µg/mL] | MIC [18] [µg/mL] | MIC (Proteus rettgeri P-2503) [µg/mL] | ED50 (Escherichia coli P-5101 [19]; iv) [mg/kg] | ED50 (Escherichia coli P-5101 [19]; sc) [mg/kg] | further results
1 | CNc1ncc2c(=O)c(C(=O)N[C@@H](C(=O)N[C@@H]3C(=O)N4[C@@H]3SC(C)(C)[C@@H]4C(=O)O)c3ccc(O)cc3)c[nH]c2n1 [Compound F, D-α-(5,8-Dihydro-2-methylamino-5-oxopyrido[2,3-d]pyrimidine-6-carboxamido)-p-hydroxybenzylpenicillin sodium salt] | 5.7 | 4.8 | ~0.7 | 25 | 0.78 | < 0.1 | 3.13 | 6.25 | 0.78 | 3.13 | 3.13 | 0.39 | 12.5 | 12 | 6.3 | antibacterial activity in vivo (in words) [1]: almost comparable; LD50 at 168 h (in vivo; iv): 1410 mg/kg; selectivity ratio (in vivo; iv): 248; LD50 at 168 h (in vivo; sc): 1410 mg/kg; selectivity ratio (in vivo; sc): 295; MIC ([5]; Salmonella enteritidis No. 1891): 1.56 µg/mL; MIC ([6]; Pseudomonas aeruginosa, NO.12, read-out: minimum inhibitory concentration (MIC)): 6.25 µg/mL; MIC ([8]; IFO3736, Serratia mercescens IFO 3736, read-out: minimum inhibitory concentration (MIC)): 12.5 µg/mL; MIC ([9]; P2540, Enterobacter cloacae P-2540, read-out: minimum inhibitory concentration (MIC)): 12.5 µg/mL; MIC ([11]; Salmonella typhimurium S-9): 1.56 µg/mL; MIC ([12]; NIHJJC2, Escherichia coli NIHJ JC-2, read-out: minimum inhibitory concentration (MIC)): 12.5 µg/mL; MIC ([13]; Staphylococcus aureus No. 50774, read-out: minimum inhibitory concentration (MIC)): 0.39 µg/mL; MIC ([15]; P2473, Streptococcus faecalis P-2473, read-out: minimum inhibitory concentration (MIC)): 1.56 µg/mL; MIC (Proteus morganii Kono; Proteus morganii Kono): 12.5 µg/mL; minimum inhibitory concentration (MIC) (Escherichia coli P-140a): 25 µg/mL
2 | CCn1cc(C(=O)O)c(=O)c2cnc(N3CCNCC3)nc21 [Compound J, 5,8-Dihydro-8-ethyl-2-(1-piperazinyl)-5-oxopyrido[2,3-d]pyrimidine-6-carboxylic acid] | 42.7 | 37.7 | > 50 | 6.25 (≈ 20.6 µM) | 12.5 (≈ 41.2 µM) | > 100 | 3.13 (≈ 10.3 µM) | 1.56 (≈ 5.14 µM) | 25 (≈ 82.4 µM) | 3.13 (≈ 10.3 µM) | 3.13 (≈ 10.3 µM) | 12.5 (≈ 41.2 µM) | 6.25 (≈ 20.6 µM) | 4.6 | 6.3 | antibacterial activity (in words) (20 strains of bacteria): inferior antibacterial activity against Gram-positive bacteria; antibacterial activity (in words) (20 strains of bacteria; listed as Pipemidic acid): does not show any marked antibacterial activity against Gram-positive bacteria; MIC ([5]; ENTERITIDIS): 1.56 µg/mL (≈ 5.14 µM); MIC ([6]; Pseudomonas aeruginosa No.12, read-out: minimum inhibitory concentration (MIC)): 25 µg/mL (≈ 82.4 µM); MIC ([8]; Serratia, IFO3736, read-out: minimum inhibitory concentration (MIC)): 6.25 µg/mL (≈ 20.6 µM); MIC ([9]; Enterobacter cloacae, P2540, read-out: minimum inhibitory concentration (MIC)): 1.56 µg/mL (≈ 5.14 µM); MIC ([11]; TYPHIMURIUM): 3.13 µg/mL (≈ 10.3 µM); MIC ([12]; Escherichia coli, NIHJJC2, read-out: minimum inhibitory concentration (MIC)): 1.56 µg/mL (≈ 5.14 µM); MIC ([13]; Staphylococcus aureus, NO.50774, read-out: minimum inhibitory concentration (MIC)): 25 µg/mL (≈ 82.4 µM); MIC ([15]; P2473, read-out: minimum inhibitory concentration (MIC)): > 200 µg/mL; MIC (Proteus morganii Kono): 3.13 µg/mL (≈ 10.3 µM); MIC (Escherichia coli P-140a; Escherichia coli, read-out: minimum inhibitory concentration (MIC)): 3.13 µg/mL (≈ 10.3 µM)
